± gives the expanded uncertainty stated by the source.
Assay: activity coefficient (dimensionless); of the first substance listed, at infinite dilution; xn = mol fraction of the nth substance listed
Details: 101 kPa, Liquid, Chromatography, x1 = 0

Compound	activity coefficient (314.1 K)	activity coefficient (314.24 K)	activity coefficient (333.26 K)	activity coefficient (333.38 K)	activity coefficient (353.25 K)	activity coefficient (353.3 K)	other results
Clc1ccccc1 [chlorobenzene] + CCCCCCCCCCCCCC(=O)O	0.983 ± 0.081	0.998 ± 0.082	0.996 ± 0.082	0.982 ± 0.081	0.979 ± 0.081	0.961 ± 0.079	
CCCCCCC [heptane] + CCCCCCCCCCCC(=O)O	1.65 ± 0.14	1.67 ± 0.14	1.67 ± 0.14	1.66 ± 0.14	1.59 ± 0.14	1.62 ± 0.14	
CC(C)CC(C)(C)C [2,2,4-trimethylpentane] + CCCCCCCCCCCCCC(=O)O							activity coefficient (338.27 K): 1.53 ± 0.13; activity coefficient (348.3 K): 1.5 ± 0.13; activity coefficient (358.33 K): 1.45 ± 0.12
CC(C)CC(C)(C)C [2,2,4-trimethylpentane] + CCCCCCCCCCCCCCCC(=O)O							activity coefficient (340.19 K): 1.5 ± 0.13; activity coefficient (348.01 K): 1.46 ± 0.12; activity coefficient (358.32 K): 1.42 ± 0.12
CC(C)O [propan-2-ol] + CCCCCCCCCCCCCC(=O)O	1.39 ± 0.12	1.42 ± 0.12	1.3 ± 0.11	1.3 ± 0.11	1.19 ± 0.099	1.19 ± 0.099	
CCCO [propan-1-ol] + CCCCCCCCCCCCCC(=O)O	1.61 ± 0.14	1.65 ± 0.14	1.52 ± 0.13	1.51 ± 0.13	1.37 ± 0.12	1.37 ± 0.12	
CCCCCCC [heptane] + CCCCCCCCCC(=O)O	1.87 ± 0.16	1.9 ± 0.16	1.83 ± 0.16	1.82 ± 0.16		1.75 ± 0.15	
Cc1ccccc1 [toluene] + CCCCCCCCCCCCCCCC(=O)O							activity coefficient (340.19 K): 0.934 ± 0.077; activity coefficient (348.01 K): 0.935 ± 0.077; activity coefficient (358.22 K): 0.934 ± 0.077
C=CCCCC [hex-1-ene] + CCCCCCCCCCCCCC(=O)O		1.24 ± 0.1	1.22 ± 0.1	1.21 ± 0.1		1.18 ± 0.098	
ClCCCl [1,2-dichloroethane] + CCCCCCCCCCCCCCCC(=O)O							activity coefficient (340.19 K): 1.22 ± 0.1; activity coefficient (348.01 K): 1.19 ± 0.099; activity coefficient (358.22 K): 1.14 ± 0.095
Clc1ccccc1 [chlorobenzene] + CCCCCCCCCCCCCCCC(=O)O							activity coefficient (340.19 K): 0.974 ± 0.08; activity coefficient (348.01 K): 0.957 ± 0.079; activity coefficient (358.22 K): 0.974 ± 0.08
CCc1ccccc1 [ethylbenzene] + CCCCCCCCCCCC(=O)O		1.22 ± 0.1	1.2 ± 0.1	1.19 ± 0.099	1.18 ± 0.098	1.18 ± 0.097	
ClCCCl [1,2-dichloroethane] + CCCCCCCCCCCC(=O)O	1.38 ± 0.12	1.37 ± 0.12	1.3 ± 0.11	1.32 ± 0.11	1.23 ± 0.1		
CO [methanol] + CCCCCCCCCC(=O)O		2.14 ± 0.18		1.84 ± 0.16		1.57 ± 0.13	activity coefficient (353.08 K): 1.46 ± 0.12
CC(C)=O [acetone] + CCCCCCCCCCCCCCCC(=O)O							activity coefficient (340.17 K): 1.49 ± 0.13; activity coefficient (340.19 K): 1.49 ± 0.13; activity coefficient (347.93 K): 1.41 ± 0.12; activity coefficient (348.01 K): 1.42 ± 0.12; activity coefficient (358.23 K): 1.32 ± 0.11; activity coefficient (358.32 K): 1.34 ± 0.11
CCOC(C)=O [ethyl acetate] + CCCCCCCCCC(=O)O	1.33 ± 0.11		1.25 ± 0.1	1.3 ± 0.11	1.21 ± 0.1		
ClC(Cl)Cl [trichloromethane] + CCCCCCCCCC(=O)O	0.823 ± 0.069	0.846 ± 0.07	0.85 ± 0.071	0.827 ± 0.069		0.825 ± 0.069	
CC(C)O [propan-2-ol] + CCCCCCCCCCCC(=O)O	1.5 ± 0.13	1.53 ± 0.13	1.33 ± 0.11	1.37 ± 0.12	1.22 ± 0.1	1.24 ± 0.1	
CC(C)=O [acetone] + CCCCCCCCCCCC(=O)O	1.59 ± 0.14	1.59 ± 0.14	1.45 ± 0.12	1.47 ± 0.12	1.33 ± 0.11	1.36 ± 0.12	

Compound	activity coefficient (314.1 K)	activity coefficient (314.24 K)	activity coefficient (333.26 K)	activity coefficient (333.38 K)	activity coefficient (353.25 K)	activity coefficient (353.3 K)	other results
CCO [ethanol] + CCCCCCCCCCCCCCCC(=O)O							activity coefficient (340.19 K): 1.93 ± 0.17; activity coefficient (348.01 K): 1.8 ± 0.15; activity coefficient (358.23 K): 1.62 ± 0.14
CCC(C)O (stereo not given) [butan-2-ol] + CCCCCCCCCCCCCCCC(=O)O							activity coefficient (340.19 K): 1.26 ± 0.1; activity coefficient (348.01 K): 1.2 ± 0.1; activity coefficient (358.32 K): 1.12 ± 0.092
CCC(C)O (stereo not given) [butan-2-ol] + CCCCCCCCCCCCCC(=O)O	1.17 ± 0.097	1.21 ± 0.1	1.12 ± 0.093	1.11 ± 0.092	1.05 ± 0.087	1.04 ± 0.086	
CC(C)CC(C)(C)C [2,2,4-trimethylpentane] + CCCCCCCCCC(=O)O	2.02 ± 0.17	1.98 ± 0.17	1.91 ± 0.16		1.86 ± 0.16		
ClC=C(Cl)Cl [trichloroethene] + CCCCCCCCCC(=O)O	1.05 ± 0.086	1.04 ± 0.085	1 ± 0.082	1.01 ± 0.083		0.969 ± 0.08	activity coefficient (353.08 K): 0.945 ± 0.078
CCC(C)O (stereo not given) [butan-2-ol] + CCCCCCCCCC(=O)O	1.33 ± 0.11	1.35 ± 0.11	1.17 ± 0.097	1.16 ± 0.096	1.05 ± 0.087	1.04 ± 0.085	
CO [methanol] + CCCCCCCCCCCC(=O)O	1.81 ± 0.15		1.67 ± 0.14			1.58 ± 0.13	activity coefficient (328.82 K): 1.9 ± 0.16; activity coefficient (343.65 K): 1.66 ± 0.14
CCCCCCC [heptane] + CCCCCCCCCCCCCC(=O)O	1.45 ± 0.12	1.47 ± 0.12		1.43 ± 0.12	1.4 ± 0.12	1.4 ± 0.12	
CC(C)=O [acetone] + CCCCCCCCCC(=O)O	1.56 ± 0.13		1.46 ± 0.12	1.47 ± 0.12	1.34 ± 0.11		
CC(C)CC(C)(C)C [2,2,4-trimethylpentane] + CCCCCCCCCCCC(=O)O	1.75 ± 0.15	1.77 ± 0.15	1.7 ± 0.14	1.72 ± 0.15	1.67 ± 0.14	1.69 ± 0.14	
C=CCCCC [hex-1-ene] + CCCCCCCCCC(=O)O		1.56 ± 0.13	1.5 ± 0.13	1.49 ± 0.13		1.43 ± 0.12	
CCOC(C)=O [ethyl acetate] + CCCCCCCCCCCCCCCC(=O)O							activity coefficient (340.19 K): 1.28 ± 0.11; activity coefficient (347.93 K): 1.2 ± 0.1; activity coefficient (358.22 K): 1.16 ± 0.096
COc1ccccc1 [anisole] + CCCCCCCCCCCCCC(=O)O	1.32 ± 0.11	1.3 ± 0.11	1.29 ± 0.11	1.27 ± 0.11	1.24 ± 0.1	1.21 ± 0.1	
CCCCCC [hexane] + CCCCCCCCCCCC(=O)O		1.57 ± 0.13	1.53 ± 0.13	1.54 ± 0.13	1.5 ± 0.13		
COc1ccccc1 [anisole] + CCCCCCCCCCCC(=O)O			1.37 ± 0.12		1.33 ± 0.11	1.35 ± 0.11	activity coefficient (343.65 K): 1.35 ± 0.11
CCc1ccccc1 [ethylbenzene] + CCCCCCCCCCCCCC(=O)O							activity coefficient (338.27 K): 1.06 ± 0.087; activity coefficient (348.3 K): 1.06 ± 0.087; activity coefficient (358.33 K): 1.04 ± 0.085
ClC(Cl)Cl [trichloromethane] + CCCCCCCCCCCC(=O)O	0.81 ± 0.068	0.81 ± 0.068	0.832 ± 0.069	0.818 ± 0.068		0.839 ± 0.07	
C=CCCCC [hex-1-ene] + CCCCCCCCCCCC(=O)O							activity coefficient (329.2 K): 1.39 ± 0.12; activity coefficient (343.39 K): 1.39 ± 0.12; activity coefficient (358.06 K): 1.34 ± 0.11
C1CCCCC1 [cyclohexane] + CCCCCCCCCC(=O)O	1.44 ± 0.12	1.46 ± 0.12	1.39 ± 0.12	1.39 ± 0.12	1.35 ± 0.12	1.31 ± 0.11	

Source: the NIST ThermoML archive (doi:10.1016/j.jct.2012.06.009)
